Test results reported in US20070026478A1, “Hemiasterlin affinity probes and their uses” (WYETH, priority 2002, published 2007).
Marks after values point to notes of the source that are not given here.

Legend:
bovine brain tubulin = molecular target: T1, bovine brain tubulin (Bos taurus, UniProt P81947+Q6B856); experiment: Competition of [3H]-Probe 1 photolabeling of tubulin; assay type: binding; conditions: for inhibition of tubulin labeling by non-radiolabeled probe: 100 μM non-radiolabeled; for Probe 1 photolabeling of tubulin (% of no-competitor control): control (no competitor) = 100
T1 construct: MAP-rich bovine brain tubulin (99% purity), Hela cell tubulin (90% purity); purchased Cytoskeleton (Denver, Colo.); host or cells: bovine brain
Procedure: Alternatively, a cytosolic preparation of KB-3-1 cell lysates (50 μg) or KB-3-1 cells (40,000 cells) were used in the place of purified tubulin above. The supernatant of mechanically disrupted cells centrifuged at 100,000×g was used as a cytosolic preparation. K-3-1 cells were prepared by growing KB-3-1 cells in a 96-well plate and rinsing them with serum free medium.
If whole cells were used, Laemmli sample buffer was then added to lyse the cells.
Low grade SDS (Sigma, catalog No. L5750) was used in the running buffer, when needed, to allow separation of α and β-tubulin subunits. Gels were fixed, stained with Coomassie blue from BioRad (Hercules, Calif.) to ensure equal loading of protein, and sliced. […] Alternatively, gels were incubated with EN^3HANCE according to the manufacturer's instructions (Life Sciences Products, Inc.), washed, and dried prior to exposure of the gel to Biomax MX film from Kodak (Rochester, N.Y.) for fluorography.
After incubation for 30 minutes at 37° C., samples were irradiated with 360 nm UV light for 30 minutes and separated by SDS-PAGE. Gels were exposed to film using fluorographic techniques.
In particular, photolabeling experiments were performed as described in section 7.1.5 above, at both room temperature and at 37° C.

bovine MAP-rich tubulin = molecular target: T2, bovine MAP-rich tubulin (Bos taurus, UniProt P81947+Q6B856); experiment: Tubulin polymerization assay in a cell-free system; assay type: biochemical; conditions: 0.3 μM compound
T2 construct: MAP-rich bovine brain tubulin (99% purity), Hela cell tubulin (90% purity); purchased Cytoskeleton (Denver, Colo.); host or cells: bovine brain
Procedure: In vitro tubulin polymerization assays were performed according to procedures that have been described elsewhere (Loganzo et al., Cancer Res. 2003, 63:1838-1845). Briefly, bovine MAP-rich tubulin (final concentration 1.5 mg/mL) was dissolved in cold PEM buffer containing 1 mM GTP (GPEM) and centrifuged at 12,000×g for 10 minutes at 4° C. The tubulin solution (100 μL/well) was added rapidly to wells of a low-volume, 96-well plate already containing duplicate aliquots (10 μL) of test compounds in GPEM. Final compound concentrations were 0.3 μM. Control wells contained the same final concentration of DMSO (0.3%). After initiation of the reaction, absorbance at 340 nm was measured every minute for 60 minutes at 24° C. using a SpectraMax Plus plate reader (Molecular Devices, Sunnyvale, Calif.). An increase in absorbance over time indicated an increase in turbidity resulting from tubulin polymerization.

CN[C@H](C(=O)N[C@H](C(=O)N(C)[C@H](/C=C(\C)C(=O)O)C(C)C)C(C)(C)C)C(C)(C)c1ccc(C(=O)c2ccccc2)cc1 [Probe 1, 4-benzoyl-N,β,β-trimethyl-L-phenylalanyl-N^1-[(1S,2E)-3-carboxy-1-isopropylbut-2-enyl]-N^1,3-dimethyl-L-valinamide]
inhibition of tubulin labeling by non-radiolabeled probe (bovine brain tubulin; tubulin: radiolabeled probe 1 of 2.5:0.25 (10:1)): 93% | inhibition of tubulin labeling by non-radiolabeled probe (bovine brain tubulin; tubulin: radiolabeled probe 1 of 2.5:2.5 (1:1)): 82% | reduction of Probe 1 photolabeling of tubulin (bovine brain tubulin; 37° C.): about 75% | Probe 1 photolabeling of tubulin (% of no-competitor control) (bovine brain tubulin; 37° C., 100 μM competitor): 24^† % | Probe 1 photolabeling of tubulin (% of no-competitor control) (bovine brain tubulin; Room Temp., 2.5 μM tubulin, 0.25 μM radiolabeled Probe 1, 100 μM competitor): 12 ± 7.8% | IC50 (bovine brain tubulin; room temperature, 2.5 μM tubulin, 0.25 μM radiolabeled Probe 1, read-out: IC50 for inhibition of Probe 1 photolabeling of tubulin): 5 µM | reduction of Probe 1 photolabeling of tubulin (bovine brain tubulin; room temperature, 400-fold molar excess (100 μM) competitor, 2.5 μM tubulin, 0.25 μM radiolabeled Probe 1): approximately 87% | inhibition at 0.3 µM (bovine MAP-rich tubulin): 88%
